Source: US7884117B2, “Carbonylamino pyrrolopyrazoles, potent kinase inhibitors” (Pfizer Inc., priority 2005, dated 2011)
pEC50, pKi: −log10 of the molar value.

What was measured:
[1] = biological target: T1, PAK4 kinase activity in whole cells (TR-293-KDG, modified HEK 293) (Homo sapiens, UniProt O96013); assay: PAK4 cellular assay: sandwich ELISA of PAK4-dependent phosphorylation of GEF-H1b in TR-293-KDG cells; assay type: cell-based; conditions: 3-hour exposure
T1 construct: engineered to overexpress both GEF-H1b and the kinase domain (KD) of PAK4; expressed in transfected cells; host or cells: TR-293-KDG (modified HEK 293, Trex system, Invitrogen)
Method: A sandwich ELISA method was used to measure the PAK4 kinase activity in whole cells. The level of PAK4-dependent phosphorylation of GEF-H1b can be determined by monitoring the binding of a phosphospecific antibody to GEF-H1b. […] The KD of PAK4 is inducible in this cell line by tetracycline (Trex system, Invitrogen). […] To establish a phosphorylation event on GEF-HL, cells are induced with doxycycline to express the PAK4 KD. […] Candidate substance effect is measured as the ability to block this phosphorylation event.
ELISA plate was prepared by pre-coating the plates with a capture antibody (α-HA-tag mouse monoclonal antibody), blocked with BSA, and washed in 0.1% tween 20 in tris-buffered saline (TBST). […] Cells were then lysed with a modified RIPA buffer supplemented with protease inhibitors. […] Between all subsequent steps plates were washed 4 times with TBST. Detection antibody (recognizing the phospho-specific eptitope on GEF-H1b) was added for 1 hour, followed by addition of an enzyme linked goat α-rabbit secondary antibody for 45 minutes. […] EC50 values were calculated by sigmoid curve fitting using a four-parameter analysis.

[2] = biological target: T2, PAK4 Kinase domain (PAK4 KD) (Homo sapiens, UniProt O96013); assay: PAK4 kinase domain enzymatic assay (PK/LDH-coupled, Ki); assay type: biochemical; conditions: PAK4 Kinase Domain
T2 construct: Cloning, expression, and purification of recombinant PAK4 Kinase domain (PAK4 KD); His tag (pET28a(+)/pET24a(+), Ni-NTA purification) (N, cleaved yes); GST (pGST4.5, glutathione column) (N, cleaved yes); made in house; host or cells: E. coli BL21(DE3)
T2 sequence (O96013 321-572 limits assumed): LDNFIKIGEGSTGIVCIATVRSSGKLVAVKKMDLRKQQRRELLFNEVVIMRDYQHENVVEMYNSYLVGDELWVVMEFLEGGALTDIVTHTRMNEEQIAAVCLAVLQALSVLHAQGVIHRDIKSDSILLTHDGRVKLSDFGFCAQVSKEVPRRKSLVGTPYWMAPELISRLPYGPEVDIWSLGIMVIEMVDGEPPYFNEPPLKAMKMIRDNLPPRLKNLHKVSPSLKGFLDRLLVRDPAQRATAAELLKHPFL

T1 sequence (O96013 321-572 limits assumed): as above

Row | pEC50 [1] | pKi [2] | SMILES
1 | 8.41 | 6.91 | CN(C)CC(OC(=O)N1Cc2c(NC(=O)c3ccc(F)cc3F)n[nH]c2C1(C)C)c1ccccc1 (stereo not shown) [Example 23, 2-(dimethylamino)-1-phenylethyl 3-[(2,4-difluorobenzoyl)amino]-6,6-dimethyl-4,6-dihydropyrrolo[3,4-c]pyrazole-5(1H)-carboxylate]
2 | 6.85 | 7.20 | CN(C)C[C@@H](OC(=O)N1Cc2c(NC(=O)c3ccccc3)n[nH]c2C1(C)C)c1ccccn1 [Example 24, (1R)-2-(dimethylamino)-1-pyridin-2-ylethyl 3-(benzoylamino)-6,6-dimethyl-4,6-dihydropyrrolo[3,4-c]pyrazole-5(1H)-carboxylate]
3 | 6.82 | 7.10 | CN(C)C[C@@H](OC(=O)N1Cc2c(NC(=O)c3ccc(F)cc3)n[nH]c2C1(C)C)c1ccccn1 [Example 25, (1R)-2-(dimethylamino)-1-pyridin-2-ylethyl 3-[(4-fluorobenzoyl)amino]-6,6-dimethyl-4,6-dihydropyrrolo[3,4-c]pyrazole-5(1H)-carboxylate]
4 | 6.61 | 6.56 | CN(C)C[C@@H](OC(=O)N1Cc2c(NC(=O)c3ccccc3F)n[nH]c2C1(C)C)c1ccccn1 [Example 26, (1R)-2-(dimethylamino)-1-pyridin-2-ylethyl 3-[(2-fluorobenzoyl)amino]-6,6-dimethyl-4,6-dihydropyrrolo[3,4-c]pyrazole-5(1H)-carboxylate]
5 | 7.10 | 7.09 | CN(C)C[C@@H](OC(=O)N1Cc2c(NC(=O)c3ccc(C(F)(F)F)cc3)n[nH]c2C1(C)C)c1ccccn1 [Example 27, (1R)-2-(dimethylamino)-1-pyridin-2-ylethyl 6,6-dimethyl-3-{[4-(trifluoromethyl)benzoyl]amino}-4,6-dihydropyrrolo[3,4-c]pyrazole-5(1H)-carboxylate]
6 | 6.55 | 7.14 | CN(C)C[C@@H](OC(=O)N1Cc2c(NC(=O)Cc3ccc(F)cc3)n[nH]c2C1(C)C)c1ccccn1 [Example 28, (1R)-2-(dimethylamino)-1-pyridin-2-ylethyl 3-{[(4-fluorophenyl)acetyl]amino}-6,6-dimethyl-4,6-dihydropyrrolo[3,4-c]pyrazole-5(1H)-carboxylate]
7 | 6.38 | 7.57 | CN(C)C[C@@H](OC(=O)N1Cc2c(NC(=O)[C@@H]3C[C@H]3c3ccccc3)n[nH]c2C1(C)C)c1ccccn1 [Example 29, (1R)-2-(dimethylamino)-1-pyridin-2-ylethyl 6,6-dimethyl-3-({[trans-2-phenylcyclopropyl]carbonyl}-amino)-4,6-dihydropyrrolo[3,4-c]pyrazole-5(1H)-carboxylate]
8 | 5.68 | 6.97 | CN(C)C[C@H](Cc1ccccc1)OC(=O)N1Cc2c(NC(=O)c3ccccc3)n[nH]c2C1(C)C [Example 30, (1S)-1-benzyl-2-(dimethylamino)ethyl 3-(benzoylamino)-6,6-dimethyl-4,6-dihydropyrrolo[3,4-c]pyrazole-5(1H)-carboxylate]
9 | 6.64 | 6.07 | CN(C)C[C@H](Cc1ccccc1)OC(=O)N1Cc2c(NC(=O)c3ccccc3F)n[nH]c2C1(C)C [Example 31, (1S)-1-benzyl-2-(dimethylamino)ethyl 3-[(2-fluorobenzoyl)amino]-6,6-dimethyl-4,6-dihydropyrrolo[3,4-c]pyrazole-5(1H)-carboxylate]
10 | 6.79 | 7.24 | CN(C)C[C@@H](OC(=O)N1Cc2c(NC(=O)c3ccccc3)n[nH]c2C1(C)C)C1CCCCC1 [Example 32, (1S)-1-cyclohexyl-2-(dimethylamino)ethyl 3-(benzoylamino)-6,6-dimethyl-4,6-dihydropyrrolo[3,4-c]pyrazole-5(1H)-carboxylate]
11 | 7.22 | 6.29 | CN(C)C[C@@H](OC(=O)N1Cc2c(NC(=O)c3ccc(F)cc3F)n[nH]c2C1(C)C)C1CCCCC1 [Example 34, (1S)-1-cyclohexyl-2-(dimethylamino)ethyl 3-[(2,4-difluorobenzoyl)amino]-6,6-dimethyl-4,6-dihydropyrrolo[3,4-c]pyrazole-5(1H)-carboxylate]
12 | 6.67 | 7.03 | CC(C)C[C@@H](CN(C)C)OC(=O)N1Cc2c(NC(=O)c3ccccc3)n[nH]c2C1(C)C [Example 35, (1S)-1-[(dimethylamino)methyl]-3-methylbutyl 3-(benzoylamino)-6,6-dimethyl-4,6-dihydropyrrolo[3,4-c]pyrazole-5(1H)-carboxylate]
13 | 6.50 | 6.99 | CC(C)C[C@@H](CN(C)C)OC(=O)N1Cc2c(NC(=O)c3ccc(F)cc3)n[nH]c2C1(C)C [Example 36, (1S)-1-[(dimethylamino)methyl]-3-methylbutyl 3-[(4-fluorobenzoyl)amino]-6,6-dimethyl-4,6-dihydropyrrolo[3,4-c]pyrazole-5(H)-carboxylate]
14 | 6.95 | 7.36 | CN(C)CC(OC(=O)N1Cc2c(NC(=O)c3ccc(F)cc3)n[nH]c2C1(C)C)c1ccccc1F (stereo not shown) [Example 38, 2-(dimethylamino)-1-(2-fluorophenyl)ethyl 3-[(4-fluorobenzoyl)amino]-6,6-dimethyl-4,6-dihydropyrrolo[3,4-c]pyrazole-5(1H)-carboxylate]
15 | 7.82 | 7.32 | CN(C)CC(OC(=O)N1Cc2c(NC(=O)c3ccc(F)cc3)n[nH]c2C1(C)C)c1ccc(F)cc1 (stereo not shown) [Example 39, 2-(dimethylamino)-1-(4-fluorophenyl)ethyl 3-[(4-fluorobenzoyl)amino]-6,6-dimethyl-4,6-dihydropyrrolo[3,4-c]pyrazole-5(1H)-carboxylate]
16 | 6.82 | 7.19 | CC(C)N(C)C[C@@H](OC(=O)N1Cc2c(NC(=O)c3ccc(F)cc3)n[nH]c2C1(C)C)c1ccccc1 [Example 40, (1S)-2-[isopropyl(methyl)amino]-1-phenylethyl 3-[(4-fluorobenzoyl)amino]-6,6-dimethyl-4,6-dihydropyrrolo[3,4-c]pyrazole-5(H)-carboxylate]
17 | 7.49 | 7.47 | CN(C)C[C@@H](NC(=O)N1Cc2c(NC(=O)c3ccccc3)n[nH]c2C1(C)C)c1ccccc1 [Example 46, 3-(benzoylamino)-N-[(1S)-2-(dimethylamino)-1-phenylethyl]-6,6-dimethyl-4,6-dihydro pyrrolo[3,4-c]pyrazole-5(1H)-carboxamide]
18 | 7.46 | 7.27 | CN(C)C[C@@H](NC(=O)N1Cc2c(NC(=O)c3ccc(F)cc3)n[nH]c2C1(C)C)c1ccccc1 [Example 47, N-[(1S)-2-(dimethylamino)-1-phenylethyl]-3-[(4-fluorobenzoyl)amino]-6,6-dimethyl-4,6-dihydropyrrolo[3,4-c]pyrazole-5(1H)-carboxamide]
19 | 7.44 | 7.01 | CN(C)C[C@@H](NC(=O)N1Cc2c(NC(=O)c3ccccc3F)n[nH]c2C1(C)C)c1ccccc1 [Example 48, N-[(1S)-2-(dimethylamino)-1-phenylethyl]-3-[(2-fluorobenzoyl)amino]-6,6-dimethyl-4,6-dihydropyrrolo[3,4-c]pyrazole-5(1H)-carboxamide]
20 | 6.47 | 7.47 | CN(C)C[C@@H](NC(=O)N1Cc2c(NC(=O)c3ccc(C(F)(F)F)cc3)n[nH]c2C1(C)C)c1ccccc1 [Example 50, N-[(1S)-2-(dimethylamino)-1-phenylethyl]-6,6-dimethyl-3-{[4-(trifluoromethyl)benzoyl]amino}-4,6-dihydropyrrolo[3,4-c]pyrazole-5(1H)-carboxamide]
21 | 7.69 | 6.93 | CN(C)C[C@@H](NC(=O)N1Cc2c(NC(=O)c3ccccn3)n[nH]c2C1(C)C)c1ccccc1 [Example 51, N-[(1S)-2-(dimethylamino)-1-phenylethyl]-6,6-dimethyl-3-[(pyridin-2-ylcarbonyl)amino]-4,6-dihydropyrrolo[3,4-c]pyrazole-5(1H)-carboxamide]
22 | 6.62 | 6.45 | CC(=O)Nc1n[nH]c2c1CN(C(=O)N[C@H](CN(C)C)c1ccccc1)C2(C)C [Example 52, 3-(acetylamino)-N-[(1S)-2-(dimethylamino)-1-phenylethyl]-6,6-dimethyl-4,6-dihydropyrrolo[3,4-c]pyrazole-5(1H)-carboxamide]
23 | 7.55 | 6.68 | CN(C)C[C@@H](NC(=O)N1Cc2c(NC(=O)C3CCC3)n[nH]c2C1(C)C)c1ccccc1 [Example 53, 3-[(cyclobutylcarbonyl)amino]-N-[(1S)-2-(dimethylamino)-1-phenylethyl]-6,6-dimethyl-4,6-dihydropyrrolo[3,4-c]pyrazole-5(1H)-carboxamide]
24 | 6.45 | 7.39 | CN(C)C[C@@H](NC(=O)N1Cc2c(NC(=O)Cc3ccc(F)cc3)n[nH]c2C1(C)C)c1ccccc1 [Example 54, N-[(1S)-2-(dimethylamino)-1-phenylethyl]-3-{[(4-fluorophenyl)acetyl]amino}-6,6-dimethyl-4,6-dihydropyrrolo[3,4-c]pyrazole-5(1H)-carboxamide]

Row | SMILES | pEC50 [1] | pKi [2]
25 | CC1(C)c2[nH]nc(NC(=O)c3ccc(F)cc3)c2CN1C(=O)OC(CN1CCCC1)c1ccccc1 (stereo not shown) [Example 43, 1-phenyl-2-pyrrolidin-1-ylethyl 3-[(4-fluorobenzoyl)amino]-6,6-dimethyl-4,6-dihydropyrrolo[3,4-c]pyrazole-5(1H)-carboxylate] | 6.36 | 7.24
26 | C[C@@H]([C@@H](OC(=O)N1Cc2c(NC(=O)c3ccc(F)cc3)n[nH]c2C1(C)C)c1ccccc1)N(C)C [Example 45, (1S,2S)-2-(dimethylamino)-1-phenylpropyl 3-[(4-fluorobenzoyl)amino]-6,6-dimethyl-4,6-dihydropyrrolo[3,4-c]pyrazole-5(1H)-carboxylate] | 7.68 | 6.50
